The source of these data is publication PMC8286840, “Identifying SARS-CoV-2 antiviral compounds by screening for small molecule inhibitors of Nsp3 papain-like protease” (Biochemical Journal, 2021).

Counter-ions that a name gives are not always drawn. Like-named read-outs stand apart in the source and are kept apart here.

For assay [1], the target named is T1, SARS-CoV-2 PLpro (nsp3 1564–1878) (Severe acute respiratory syndrome coronavirus 2, UniProt P0DTD1). Kind of assay: biochemical. More on the design: FRET-quenched peptide (Pro3) cleavage by PLpro, 10 min pre-incubation, slope over 20 min, normalised to no-compound control. The settings on record: low concentration screen, read-out: % of control remaining.
Procedure: The plates were organized with columns 3–22 containing the compounds; the remaining columns were used for reaction controls including substrate only and substrate with enzyme but no compound (Figure 3Aii). The PLpro enzyme was pre-incubated with the compounds for 10 min, and then the reaction was initiated by the addition of substrate. […] We incubated the inhibitors with PLpro before the enzymatic reaction so that the slow-binding inhibitors will not be missed out [21]. […] Fluorescence was read on a Spark multimode microplate reader (Tecan) with an excitation wavelength at 330 nm and emission wavelength at 420 nm. […] An amount of 5 µl of the enzyme was pre-incubated with compounds for 10 min before the addition of 15 µl substrate. Fluorescence was monitored at 2 min for 20 min with 3 min intervals giving a total of seven readings.
Assay [2] has as its target T1, SARS-CoV-2 PLpro (nsp3 1564–1878). In words: biochemical. As to conditions: high concentration screen, read-out: % of control remaining. On the set-up: FRET-quenched peptide (Pro3) cleavage by PLpro, 10 min pre-incubation, slope over 20 min, normalised to no-compound control.

As for `O=C(O)Cc1ccccc1` [Sodium Phenylacetate], in assay [1] (Well no.=1884), the remaining activity at 1.25 µM was determined as 94.7%. Moreover, the remaining activity at 3.75 µM in assay [2] (Well no.=1884) is 97.8%.
With `O=C(O)CCCc1ccccc1` [Sodium Phenylbutyrate], in assay [1] (Well no.=1582), the remaining activity at 1.25 µM came to 106%. The remaining activity at 3.75 µM in assay [2] (Well no.=1582) is 103%.
As for `O=S(=O)(O)Oc1ccc(C(c2ccc(OS(=O)(=O)O)cc2)c2ccccn2)cc1` [Sodium Picosulfate], the remaining activity at 1.25 µM in assay [1] (Well no.=4654) worked out at 103%. The remaining activity at 3.75 µM in assay [2] (Well no.=4654) was found to be 99.8%.
With `CCCC(=O)O` [Sodium butyrate], the remaining activity at 1.25 µM in assay [1] (Well no.=4674) was determined as 94.4%. Further, the remaining activity at 3.75 µM in assay [2] (Well no.=4674) stood at 90%.
`O=C(O)C(Cl)Cl` [Sodium dichloroacetate (DCA)]: the remaining activity at 1.25 µM in assay [1] (Well no.=8490) was found to be 96.6%. Besides, the remaining activity at 3.75 µM in assay [2] (Well no.=8490) was determined as 96.1%.
For the compound `O=C(O)c1ccccc1O` [Sodium salicylate], the remaining activity at 1.25 µM in assay [1] (Well no.=4971) turned out to be 98.6%. The remaining activity at 3.75 µM in assay [2] (Well no.=4971) was determined as 97.2%.
As to `CNc1cccc(NC(=O)N[C@@H]2N=C(c3ccccn3)c3ccccc3N(CC(=O)C(C)(C)C)C2=O)c1` [Sograzepide], the remaining activity at 1.25 µM in assay [1] (Well no.=8322) worked out at 94.5%. For the same compound, in assay [2] (Well no.=8322), the remaining activity at 3.75 µM worked out at 93%.
For the compound `CC(C)=CCC/C(C)=C/CC/C(C)=C/CC/C(C)=C/CC/C(C)=C/CC/C(C)=C/CC/C(C)=C/CC/C(C)=C/CC/C(C)=C/CO` [Solanesol], the remaining activity at 1.25 µM in assay [1] (Well no.=3759) was found to be 96.8%. The remaining activity at 3.75 µM in assay [2] (Well no.=3759) stood at 96.5%.
Regarding `C[C@@H]1CC[C@@]2(NC1)O[C@H]1C[C@H]3[C@@H]4CC=C5C[C@@H](O)CC[C@]5(C)[C@H]4CC[C@]3(C)[C@H]1[C@@H]2C` [Solasodine], the remaining activity at 1.25 µM in assay [1] (Well no.=3467) worked out at 97.1%. In assay [2] (Well no.=3467), the remaining activity at 3.75 µM came to 95.3%.
For the compound `CC[C@H]1OC(=O)[C@@](C)(F)C(=O)[C@H](C)[C@@H](O[C@@H]2O[C@H](C)C[C@H](N(C)C)[C@H]2O)[C@](C)(OC)C[C@@H](C)C(=O)[C@H](C)[C@H]2N(CCCCn3cc(-c4cccc(N)c4)nn3)C(=O)O[C@]12C` [Solithromycin], in assay [1] (Well no.=7990), the remaining activity at 1.25 µM turned out to be 97.5%. Moreover, the remaining activity at 3.75 µM in assay [2] (Well no.=7990) was 95.7%.
For `C=C1[C@H]2C[C@@]3([C@@H]1O)[C@@H](CC2=O)[C@]12[C@@H]4C[C@H]3[C@H]1N(CC)C[C@]4(C)CC[C@@H]2O` [Songorine], the remaining activity at 1.25 µM in assay [1] (Well no.=3203) came out at 102%. The remaining activity at 3.75 µM in assay [2] (Well no.=3203) was determined as 102%.
Take `O=C1C=CC[C@@H]2[C@H]3CCCN4CCC[C@@H](CN12)[C@@H]34` [Sophocarpine]: the remaining activity at 1.25 µM in assay [1] (Well no.=4870) is 99.5%. In addition, the remaining activity at 3.75 µM in assay [2] (Well no.=4870) was 101%.
In the case of `CNC(=O)c1cc(Oc2ccc(NC(=O)Nc3ccc(Cl)c(C(F)(F)F)c3)cc2)ccn1` [Sorafenib], the remaining activity at 1.25 µM in assay [1] (Well no.=2941) worked out at 101%. In addition, the remaining activity at 3.75 µM in assay [2] (Well no.=2941) was 97.8%.
As for `OC[C@@H](O)[C@@H](O)[C@H](O)[C@@H](O)CO` [Sorbitol], in assay [1] (Well no.=8244), the remaining activity at 1.25 µM stood at 100%. Moreover, the remaining activity at 3.75 µM in assay [2] (Well no.=8244) was determined as 99.8%.
On to `CCOc1ccc(Cc2cc([C@@H]3O[C@H](SC)[C@@H](O)[C@H](O)[C@H]3O)ccc2Cl)cc1` [Sotagliflozin (LX4211)], for which the remaining activity at 1.25 µM in assay [1] (Well no.=8820) amounted to 97.4%. Further, the remaining activity at 3.75 µM in assay [2] (Well no.=8820) was found to be 95.6%.
Consider `CC(C)NCC(O)c1ccc(NS(C)(=O)=O)cc1` (stereo not shown) [Sotalol (hydrochloride)], for which the remaining activity at 1.25 µM in assay [1] (Well no.=6363) worked out at 100%. Besides, the remaining activity at 3.75 µM in assay [2] (Well no.=6363) was 98.6%.
For `CC(C)NCC(O)c1ccc(NS(C)(=O)=O)cc1` (stereo not shown) [Sotalol.HCl], the remaining activity at 1.25 µM in assay [1] (Well no.=1785) was found to be 103%. Besides, in assay [2] (Well no.=1785), the remaining activity at 3.75 µM came out at 102%.
In the case of `CN1CCN(c2nc(C3=C(c4c[nH]c5ccccc45)C(=O)NC3=O)c3ccccc3n2)CC1` [Sotrastaurin (AEB071)], in assay [1] (Well no.=4747), the remaining activity at 1.25 µM worked out at 105%. In addition, the remaining activity at 3.75 µM in assay [2] (Well no.=4747) amounted to 109%.
Turning to `C[C@@H]1CN(c2c(F)c(N)c3c(=O)c(C(=O)O)cn(C4CC4)c3c2F)C[C@H](C)N1` [Sparfloxacin], the remaining activity at 1.25 µM in assay [1] (Well no.=2251) was found to be 95.3%. Also, in assay [2] (Well no.=2251), the remaining activity at 3.75 µM was 97.4%.
For `CNC1C(O)C(NC)C2OC3(O)C(=O)CC(C)OC3OC2C1O` (stereo not shown) [Spectinomycin.2HCl], in assay [1] (Well no.=1587), the remaining activity at 1.25 µM came out at 101%. In addition, the remaining activity at 3.75 µM in assay [2] (Well no.=1587) worked out at 101%.
For `CN[C@@H]1[C@H](O)[C@H](NC)[C@H]2O[C@@]3(O)C(=O)C[C@@H](C)O[C@H]3O[C@@H]2[C@H]1O` [Spectinomycin], the remaining activity at 1.25 µM in assay [1] (Well no.=3174) worked out at 103%. In assay [2] (Well no.=3174), the remaining activity at 3.75 µM was found to be 110%.
As to `NCCCCNCCCN` [Spermidine trihydrochloride], the remaining activity at 1.25 µM in assay [1] (Well no.=1168) stood at 102%. For the same compound, in assay [2] (Well no.=1168), the remaining activity at 3.75 µM worked out at 104%.
As to `NCCCCNCCCN` [Spermidine], the remaining activity at 1.25 µM in assay [1] (Well no.=7069) was determined as 107%. For the same compound, in assay [2] (Well no.=7069), the remaining activity at 3.75 µM was 105%.
For `NCCCNCCCCNCCCN` [Spermine tetrahydrochloride], the remaining activity at 1.25 µM in assay [1] (Well no.=1312) amounted to 100%. Besides, in assay [2] (Well no.=1312), the remaining activity at 3.75 µM came to 101%.
With `CCCCCCCCCCCCC/C=C/[C@@H](O)[C@@H](N)CO` [Sphingosine], the remaining activity at 1.25 µM in assay [1] (Well no.=4361) came to 101%. Also, the remaining activity at 3.75 µM in assay [2] (Well no.=1172) was 104%; in assay [2] (Well no.=4361), 93.6%.
For `O=C(CCCN1CCC2(CC1)C(=O)NCN2c1ccccc1)c1ccc(F)cc1` [Spiperone hydrochloride], the remaining activity at 1.25 µM in assay [1] (Well no.=1268) was determined as 105%. Further, the remaining activity at 3.75 µM in assay [2] (Well no.=1268) stood at 105%.
For the compound `CC(=O)S[C@@H]1CC2=CC(=O)CC[C@]2(C)[C@H]2CC[C@@]3(C)[C@@H](CC[C@@]34CCC(=O)O4)[C@H]12` [Spironolactone], the remaining activity at 1.25 µM in assay [1] (Well no.=1266) came out at 97.8%; in assay [1] (Well no.=2253), 93%. In addition, the remaining activity at 3.75 µM in assay [2] (Well no.=1266) is 93.5%; in assay [2] (Well no.=2253), 82.7%.
Take `O=C1NCN(c2ccccc2)C12CCN(CC1COc3ccccc3O1)CC2` (stereo not shown) [Spiroxatrine]: the remaining activity at 1.25 µM in assay [1] (Well no.=1277) worked out at 99.7%. Besides, the remaining activity at 3.75 µM in assay [2] (Well no.=1277) turned out to be 102%.
Turning to `O=C1CCc2c(ccc3ccccc23)O1` [Splitomicin], the remaining activity at 1.25 µM in assay [1] (Well no.=5525) was 105%. In assay [2] (Well no.=5525), the remaining activity at 3.75 µM was 120%.
As for `CC(C)=CCC/C(C)=C/CC/C(C)=C/CC/C=C(\C)CC/C=C(\C)CCC=C(C)C` [Squalene], in assay [1] (Well no.=7255), the remaining activity at 1.25 µM was determined as 98.6%. Besides, the remaining activity at 3.75 µM in assay [2] (Well no.=7255) amounted to 96.6%.
In the case of `COc1cc2ncnc(Nc3ccc(Oc4ccccc4)cc3)c2cc1OC` [Src Kinase Inhibitor I], in assay [1] (Well no.=2563), the remaining activity at 1.25 µM is 99.2%. Moreover, the remaining activity at 3.75 µM in assay [2] (Well no.=2563) was found to be 99.3%.
In the case of `C[N+]1(C)CCC[C@H]1C(=O)[O-]` [Stachydrine hydrochloride], the remaining activity at 1.25 µM in assay [1] (Well no.=8032) was found to be 98.3%. Further, the remaining activity at 3.75 µM in assay [2] (Well no.=8032) is 96.9%.
